Reference: ChEMBL document CHEMBL1201862, “PubChem BioAssay data set” (2004)
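Five concentrations, 48 hours, 96-well plates. Here, GI50 denotes the concentration required for 50% inhibition of growth.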 Active and inactive are the calls of the source. Cut-off read from the data, not from the text of the source: active = GI50 up to about 1.1 µM and inactive = higher.

How the values were obtained:
Assay in all cases: NCI tumour cell line growth inhibition, 48 h
786-0 = test system: 786-0
A498 = test system: A498
A549 = test system: A549
ACHN = test system: ACHN
CAKI-1 = test system: CAKI-1
CCRF-CEM = test system: CCRF-CEM
COLO 205 = test system: COLO 205
DU-145 = test system: DU-145
EKVX = test system: EKVX
HCC 2998 = test system: HCC 2998
HCT-116 = test system: HCT-116
HL-60 = test system: HL-60
HOP-92 = test system: HOP-92
HT-29 = test system: HT-29
Hs-578T = test system: Hs-578T
IGROV-1 = test system: IGROV-1
K562 = test system: K562
KM12 = test system: KM12
LOX IMVI = test system: LOX IMVI
M14 = test system: M14
MCF7 = test system: MCF7
MDA-MB-435 = test system: MDA-MB-435
MDA-N = test system: MDA-N
MOLT-4 = test system: MOLT-4
Malme-3M = test system: Malme-3M
NCI-H226 = test system: NCI-H226
NCI-H23 = test system: NCI-H23
NCI-H460 = test system: NCI-H460
NCI-H522 = test system: NCI-H522
NCI/ADR-RES = test system: NCI/ADR-RES
OVCAR-3 = test system: OVCAR-3
OVCAR-4 = test system: OVCAR-4
OVCAR-5 = test system: OVCAR-5
OVCAR-8 = test system: OVCAR-8
PC-3 = test system: PC-3
RPMI-8226 = test system: RPMI-8226
RXF 393 = test system: RXF 393
SF-268 = test system: SF-268
SF-295 = test system: SF-295
SK-MEL-28 = test system: SK-MEL-28
SK-MEL-5 = test system: SK-MEL-5
SK-OV-3 = test system: SK-OV-3
SN12C = test system: SN12C
SNB-19 = test system: SNB-19
SNB-75 = test system: SNB-75
SR = test system: SR
SW-620 = test system: SW-620
TK-10 = test system: TK-10
UACC-257 = test system: UACC-257
UO-31 = test system: UO-31

Measured: GI50

CC(NC(=O)OC(C)(C)C)C(=O)NC1CCCC1 (stereo not given)
inactive: 786-0 > 100 µM | A498 > 100 µM | A549 > 100 µM | ACHN > 100 µM | CAKI-1 > 100 µM | CCRF-CEM > 100 µM | COLO 205 > 100 µM | DU-145 > 100 µM | EKVX > 100 µM | HCC 2998 > 100 µM | HCT-116 > 100 µM | HL-60 > 100 µM | HOP-92 > 100 µM | HT-29 > 100 µM | Hs-578T > 100 µM | IGROV-1 > 100 µM | K562 > 100 µM | KM12 > 100 µM | LOX IMVI > 100 µM | M14 > 100 µM | MCF7 > 100 µM | MDA-MB-435 > 100 µM | MDA-N > 100 µM | MOLT-4 > 100 µM | Malme-3M > 100 µM | NCI-H226 > 100 µM | NCI-H23 > 100 µM | NCI-H460 > 100 µM | NCI-H522 > 100 µM | NCI/ADR-RES > 100 µM | OVCAR-3 > 100 µM | OVCAR-4 > 100 µM | OVCAR-5 > 100 µM | OVCAR-8 > 100 µM | PC-3 > 100 µM | RPMI-8226 > 100 µM | RXF 393 > 100 µM | SF-268 > 100 µM | SF-295 > 100 µM | SK-MEL-28 > 100 µM | SK-MEL-5 > 100 µM | SK-OV-3 > 100 µM | SN12C > 100 µM | SNB-19 > 100 µM | SNB-75 > 100 µM | SR > 100 µM | SW-620 > 100 µM | TK-10 > 100 µM | UACC-257 > 100 µM | UO-31 > 100 µM
